Reference: patent publication US10357493B2, “Metalloenzyme inhibitor compounds” (Selenity Therapeutics (Bermuda), Ltd., priority 2017, dated 2019)

What was measured:
HDAC1 = HDAC1 (Homo sapiens (Human), UniProt Q13547); experiment: HDAC1 enzymatic assay; type: biochemical; conditions: read-out: Human HDAC1 IC50
Procedure, shortened: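 HDAC1 activity was measured in duplicate 50 μl reactions containing 0.5 ng HDAC1, 10 uM of HDAC substrate, and test compound in buffer (50 mM Tris-HCl, pH 7.4, 137 mM NaCl, 2.7 mM KCl, 0.05% Tween 20, 5 μg BSA) with 1% DMSO, incubated 17 hours at room temperature. HDAC Developer was then added for 20 minutes and fluorescence read at 360/460 nm.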

HDAC6 = HDAC6 (Homo sapiens (Human), UniProt Q9UBN7); experiment: HDAC6 enzymatic assay; type: biochemical; conditions: read-out: Human HDAC6 IC50
Procedure, shortened: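 Human HDAC6 activity was measured in duplicate 50 μl reactions holding 2 ng HDAC6, 10 uM of HDAC substrate and test compound in HDAC assay buffer (50 mM Tris-HCl, pH 7.4, 137 mM NaCl, 2.7 mM KCl, 0.05% Tween 20, 5 μg BSA) with 1% DMSO, for 17 hours at room temperature. HDAC Developer was added for 20 minutes before reading fluorescence at 360/460 nm.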

HDAC6, sequence (Q9UBN7 whole entry): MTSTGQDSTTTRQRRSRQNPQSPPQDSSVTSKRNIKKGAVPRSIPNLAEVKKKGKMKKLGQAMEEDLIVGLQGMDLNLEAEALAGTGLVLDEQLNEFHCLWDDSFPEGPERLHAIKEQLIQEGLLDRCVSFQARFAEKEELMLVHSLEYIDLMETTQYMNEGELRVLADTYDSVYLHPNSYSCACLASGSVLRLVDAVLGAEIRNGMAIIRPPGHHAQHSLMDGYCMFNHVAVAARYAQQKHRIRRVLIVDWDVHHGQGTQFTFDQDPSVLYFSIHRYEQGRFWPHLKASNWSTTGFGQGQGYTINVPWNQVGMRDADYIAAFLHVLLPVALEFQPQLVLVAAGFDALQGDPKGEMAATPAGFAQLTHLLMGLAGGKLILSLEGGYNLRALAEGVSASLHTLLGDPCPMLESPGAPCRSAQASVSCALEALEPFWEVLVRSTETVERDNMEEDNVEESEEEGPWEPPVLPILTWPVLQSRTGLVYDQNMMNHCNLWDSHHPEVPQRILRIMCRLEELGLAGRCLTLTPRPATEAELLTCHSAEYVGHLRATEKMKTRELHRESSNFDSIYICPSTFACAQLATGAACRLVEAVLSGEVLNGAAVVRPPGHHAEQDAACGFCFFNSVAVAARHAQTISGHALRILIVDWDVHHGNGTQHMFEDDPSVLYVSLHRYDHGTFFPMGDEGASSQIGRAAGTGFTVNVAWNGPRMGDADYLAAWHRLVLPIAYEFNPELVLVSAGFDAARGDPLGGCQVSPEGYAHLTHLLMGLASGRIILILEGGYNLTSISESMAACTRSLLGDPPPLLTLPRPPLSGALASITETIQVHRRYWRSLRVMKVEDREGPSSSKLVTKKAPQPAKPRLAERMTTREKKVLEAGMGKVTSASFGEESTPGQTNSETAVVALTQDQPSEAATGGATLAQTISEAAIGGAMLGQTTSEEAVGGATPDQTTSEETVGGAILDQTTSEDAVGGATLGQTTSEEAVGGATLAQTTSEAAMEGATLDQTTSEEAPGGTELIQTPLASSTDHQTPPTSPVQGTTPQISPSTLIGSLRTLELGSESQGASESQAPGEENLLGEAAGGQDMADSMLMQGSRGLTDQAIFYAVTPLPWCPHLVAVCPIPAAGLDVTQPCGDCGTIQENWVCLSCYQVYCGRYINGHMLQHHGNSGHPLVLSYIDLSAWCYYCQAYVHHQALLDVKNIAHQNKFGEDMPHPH
HDAC1, sequence (Q13547 whole entry): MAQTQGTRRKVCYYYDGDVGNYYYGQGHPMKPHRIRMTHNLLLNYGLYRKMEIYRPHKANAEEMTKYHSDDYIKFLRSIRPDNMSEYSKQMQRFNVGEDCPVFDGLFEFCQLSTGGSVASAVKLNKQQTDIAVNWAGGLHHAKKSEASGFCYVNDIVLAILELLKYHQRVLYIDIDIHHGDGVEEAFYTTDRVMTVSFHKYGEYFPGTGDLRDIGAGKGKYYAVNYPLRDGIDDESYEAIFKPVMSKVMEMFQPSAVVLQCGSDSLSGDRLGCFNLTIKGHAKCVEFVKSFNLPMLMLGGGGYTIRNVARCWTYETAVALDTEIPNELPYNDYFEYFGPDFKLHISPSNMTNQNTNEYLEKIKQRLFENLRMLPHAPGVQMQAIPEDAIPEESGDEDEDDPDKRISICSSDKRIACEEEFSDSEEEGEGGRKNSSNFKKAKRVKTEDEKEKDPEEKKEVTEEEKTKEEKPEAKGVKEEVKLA

| Compound | IC50 (HDAC1) [nM] | IC50 (HDAC6) [nM] |
| --- | --- | --- |
| COCC(Nc1ncc(-c2nnc(C(F)F)o2)cn1)c1ccc(F)cc1 (stereo not shown) [Example 21, 5-(5-(difluoromethyl)-1,3,4-oxadiazol-2-yl)-N-(1-(4-fluorophenyl)-2-methoxyethyl)pyrimidin-2-amine] | > 30000 | 77 |
| Fc1ccc(-c2ccccc2C2(Nc3ncc(-c4nnc(C(F)F)o4)cn3)CC2)cc1 [Example 14, 5-(5-(difluoromethyl)-1,3,4-oxadiazol-2-yl)-N-(1-(4′-fluoro-[1,1′-biphenyl]-2-yl)cyclopropyl)pyrimidin-2-amine] | > 30000 | > 30000 |
| O=C(Nc1ccccc1)C(Nc1ncc(-c2nnc(C(F)F)o2)cn1)c1ccc(F)cc1 (stereo not shown) [Example 35, 2-((5-(5-(difluoromethyl)-1,3,4-oxadiazol-2-yl)pyrimidin-2-yl)amino)-2-(4-fluorophenyl)-N-phenylacetamide] | > 30000 | 170 |
| CC(Nc1ncc(-c2nnc(C(F)F)o2)cn1)c1ccc(F)cc1 (stereo not shown) [Example 20, 5-(5-(difluoromethyl)-1,3,4-oxadiazol-2-yl)-N-(1-(4-fluorophenyl)ethyl)pyrimidin-2-amine] | > 30000 | 33 |
| FC(F)c1nnc(-c2cnc(NC3(c4cc(C(F)(F)F)ccc4Cl)CC3)nc2)o1 [Example 81, N-(1-(2-chloro-5-(trifluoromethyl)phenyl)cyclopropyl)-5-(5-(difluoromethyl)-1,3,4-oxadiazol-2-yl)pyrimidin-2-amine] | > 30000 | 210 |
| CC(=O)N(C)CC(Nc1ncc(-c2nnc(C(F)F)o2)cn1)c1ccc(F)cc1 (single isomer, unassigned) [166(+), N-(2-((5-(5-(difluoromethyl)-1,3,4-oxadiazol-2-yl)pyrimidin-2-yl)amino)-2-(4-fluorophenyl)ethyl)-N-methylacetamide] | > 30000 | 93 |
| CN(CC(Nc1ncc(-c2nnc(C(F)F)o2)cn1)c1ccc(F)cc1)C(=O)C1CC1 (single isomer, unassigned) [169(+), N-(2-((5-(5-(difluoromethyl)-1,3,4-oxadiazol-2-yl)pyrimidin-2-yl)amino)-2-(4-fluorophenyl)ethyl)-N-methylcyclopropanecarboxamide] | > 30000 | 77 |
| CS(=O)(=O)NCC(Nc1ncc(-c2nnc(C(F)F)o2)cn1)c1ccc(OC(F)F)cc1F (single isomer, unassigned) [116(−), N-(2-(4-(difluoromethoxy)-2-fluorophenyl)-2-((5-(5-(difluoromethyl)-1,3,4-oxadiazol-2-yl)pyrimidin-2-yl)amino)ethyl)methanesulfonamide] | > 30000 | 260 |
| CS(=O)(=O)Nc1ccccc1C(Nc1ncc(-c2nnc(C(F)F)o2)cn1)c1ccc(F)cc1 (stereo not shown) [Example 130, N-(2-(((5-(5-(difluoromethyl)-1,3,4-oxadiazol-2-yl)pyrimidin-2-yl)amino)(4-fluorophenyl)methyl)phenyl)methanesulfonamide] | > 30000 | 190 |
| CN(CC(Nc1ncc(-c2nnc(C(F)F)o2)cn1)c1ccc(F)cc1)S(C)(=O)=O (stereo not shown) [Example 113, N-(2-((5-(5-(difluoromethyl)-1,3,4-oxadiazol-2-yl)pyrimidin-2-yl)amino)-2-(4-fluorophenyl)ethyl)-N-methylmethanesulfonamide] | > 30000 | 21 |
| CS(=O)(=O)N(CC(Nc1ncc(-c2nnc(C(F)F)o2)cn1)c1ccc(F)cc1F)CC(F)(F)F (stereo not drawn) [138(+), N-(2-((5-(5-(difluoromethyl)-1,3,4-oxadiazol-2-yl)pyrimidin-2-yl)amino)-2-(2,4-difluorophenyl)ethyl)-N-(2,2,2-trifluoroethyl)methanesulfonamide] | > 30000 | 75 |
| FC(F)c1nnc(-c2cnc(NC3(c4cccc(OC(F)(F)F)c4)CC3)nc2)o1 [Example 53, 5-(5-(difluoromethyl)-1,3,4-oxadiazol-2-yl)-N-(1-(3-(trifluoromethoxy)phenyl)cyclopropyl) pyrimidin-2-amine] | > 30000 | 23 |
| CCCS(=O)(=O)NCC(Nc1ncc(-c2nnc(C(F)F)o2)cn1)c1ccc(F)cc1 (stereo not shown) [Example 111, N-(2-((5-(5-(difluoromethyl)-1,3,4-oxadiazol-2-yl)pyrimidin-2-yl)amino)-2-(4-fluorophenyl)ethyl)propane-1-sulfonamide] | > 30000 | 32 |
| CN(CC(Nc1ncc(-c2nnc(C(F)F)o2)cn1)c1ccc(OC(F)(F)F)cc1)S(=O)(=O)C1CC1 (stereo not drawn) [159(+), N-(2-((5-(5-(difluoromethyl)-1,3,4-oxadiazol-2-yl)pyrimidin-2-yl)amino)-2-(4-(trifluoromethoxy)phenyl)ethyl)-N-methylcyclopropanesulfonamide] | > 30000 | 90 |
| CS(=O)(=O)Nc1ccc(CC(Nc2ncc(-c3nnc(C(F)F)o3)cn2)c2ccc(F)cc2)cc1 (stereo not shown) [Example 133, N-(4-(2-((5-(5-(difluoromethyl)-1,3,4-oxadiazol-2-yl)pyrimidin-2-yl)amino)-2-(4-fluorophenyl)ethyl)phenyl)methanesulfonamide] | > 30000 | 330 |
| NCC(Nc1ncc(-c2nnc(C(F)F)o2)cn1)c1ccc(F)cc1 (stereo not shown) [Example 96, N1-(5-(5-(difluoromethyl)-1,3,4-oxadiazol-2-yl)pyrimidin-2-yl)-1-(4-fluorophenyl)ethane-1,2-diamine] | > 30000 | 58 |
| Fc1ccc(C(CC(F)(F)F)Nc2ncc(-c3nnc(C(F)F)o3)cn2)c(F)c1 (single isomer, unassigned) [101(−)] | > 30000 | 710 |
| CCS(=O)(=O)NCC(Nc1ncc(-c2nnc(C(F)F)o2)cn1)c1ccc(F)cc1F (single isomer, unassigned) [139(+), N-(2-((5-(5-(difluoromethyl)-1,3,4-oxadiazol-2-yl)pyrimidin-2-yl)amino)-2-(2,4-difluorophenyl)ethyl)ethanesulfonamide] | > 30000 | 33 |
| Fc1ccc(C(Cn2cnc(C(F)(F)F)c2)Nc2ncc(-c3nnc(C(F)F)o3)cn2)cc1 (single isomer, unassigned) [175(+), 5-(5-(difluoromethyl)-1,3,4-oxadiazol-2-yl)-N-(1-(4-fluorophenyl)-2-(4-(trifluoromethyl)-1H-imidazol-1-yl)ethyl)pyrimidin-2-amine] | > 30000 | 160 |
| CN(c1ncc(-c2nnc(C(F)F)o2)cn1)C1(c2ccc(F)cc2)CC1 [Example 8, 5-(5-(difluoromethyl)-1,3,4-oxadiazol-2-yl)-N-(1-(4-fluorophenyl)cyclopropyl)-N-methylpyrimidin-2-amine] | > 30000 | 9000 |
| Fc1ccc(C2(Nc3ncc(-c4nnc(C(F)F)o4)cn3)CC2)cc1F [Example 59, 5-(5-(difluoromethyl)-1,3,4-oxadiazol-2-yl)-N-(1-(3,4-difluorophenyl)cyclopropyl) pyrimidin-2-amine] | > 30000 | 21 |
| FC(F)c1nnc(-c2cnc(NC(c3ccccc3)c3ccccc3)nc2)o1 [Example 7, N-benzhydryl-5-(5-(difluoromethyl)-1,3,4-oxadiazol-2-yl)pyrimidin-2-amine] | > 30000 | 1700 |
| CC(C)CS(=O)(=O)NCC(Nc1ncc(-c2nnc(C(F)F)o2)cn1)c1ccc(F)cc1 (stereo not shown) [Example 112, N-(2-((5-(5-(difluoromethyl)-1,3,4-oxadiazol-2-yl)pyrimidin-2-yl)amino)-2-(4-fluorophenyl)ethyl)-2-methylpropane-1-sulfonamide] | > 30000 | 32 |
| Fc1ccc(C(CC(F)(F)F)Nc2ncc(-c3nnc(C(F)F)o3)cn2)cc1 (single isomer, unassigned; (-)) [13(−), (−)-5-(5-(difluoromethyl)-1,3,4-oxadiazol-2-yl)-N-(3,3,3-trifluoro-1-(4-fluorophenyl)propyl)pyrimidin-2-amine] | > 30000 | 550 |
| Fc1cccc(C2(Nc3ncc(-c4nnc(C(F)F)o4)cn3)CC2)c1Cl [Example 91, N-(1-(2-chloro-3-fluorophenyl)cyclopropyl)-5-(5-(difluoromethyl)-1,3,4-oxadiazol-2-yl)pyrimidin-2-amine] | > 30000 | 21 |
| Fc1ccc(C(COc2ccccc2)Nc2ncc(-c3nnc(C(F)F)o3)cn2)cc1 (stereo not shown) [Example 19, 5-(5-(difluoromethyl)-1,3,4-oxadiazol-2-yl)-N-(1-(4-fluorophenyl)-2-phenoxyethyl)pyrimidin-2-amine] | > 30000 | 47 |
| CS(=O)(=O)N(CC(Nc1ncc(-c2nnc(C(F)F)o2)cn1)c1ccc(F)cc1)CC(F)(F)F (stereo not shown) [Example 118, N-(2-((5-(5-(difluoromethyl)-1,3,4-oxadiazol-2-yl)pyrimidin-2-yl)amino)-2-(4-fluorophenyl)ethyl)-N-(2,2,2-trifluoroethyl)methanesulfonamide] | > 30000 | 72 |
| CC(C)C(Nc1ncc(-c2nnc(C(F)F)o2)cn1)c1ccc(F)cc1 (stereo not shown) [Example 24, 5-(5-(difluoromethyl)-1,3,4-oxadiazol-2-yl)-N-(1-(4-fluorophenyl)-2-methylpropyl)pyrimidin-2-amine] | > 30000 | 95 |
| CC(NS(C)(=O)=O)C(Nc1ncc(-c2nnc(C(F)F)o2)cn1)c1ccc(F)cc1 (single isomer, unassigned) [Example 127A, N-(1-((5-(5-(difluoromethyl)-1,3,4-oxadiazol-2-yl)pyrimidin-2-yl)amino)-1-(4-fluorophenyl)propan-2-yl)methanesulfonamide] | > 30000 | 45 |
